Test results as given in patent publication US20060223884A1, “Compounds and compositions for use in the prevention and treatment of obesity and related syndromes” (priority 2005, published 2006).
Like-named read-outs stand apart in the source and are kept apart here.

Tests used:
[1] = type: in vivo; settings: ob/ob mice
Excerpt: The objective of this study was to evaluate the effect of chronic administration of 4-hydroxyisoleucine (4-OH, compound 14a) on food consumption and body weight gain in a genetic model of obesity, the ob/ob mouse. Body weight gain and food consumption were monitored for 1 week prior to the commencement of treatment, and then for the 56 days of treatment.
A total of 16 animals were used in the study. The animals were distributed into 2 groups (1 treated, 1 control group, all on standard chow). Each group was composed of 8 animals. The mice were randomized according to body weight values.
For the eight weeks of treatment, the test agent was dissolved in reverse osmosis water. 4-hydroxyisoleucine was aliquoted and kept at 4° C. Control animals received reverse osmosis water twice daily (group 1). Mice from group 2 were treated twice daily with 4-OH at 100 mg/kg. All groups were treated by oral gavage. Treatment commenced on Day 0 and ended on Day 56 (FIGS. 16A and 16B). Food consumption was measured daily and averaged on a weekly basis beginning one week before the start of treatment as shown in FIG. 16B.

[2] = DIO mice
Excerpt: The objective of this study was to evaluate the effect of chronic administration of 4-hydroxyisoleucine (4-OH, compound 14a) and Rosiglitazone, administered alone or in combination, on food consumption and body weight gain of DIO-mice. Both parameters were monitored for 1 week prior to the commencement of treatment, then for the 28 days of treatment and for an additional 7 days post-treatment.
A total of 72 animals were used in the study. The animals were distributed into 6 groups (5 treated, 1 control group, all on high fat diet). Each group was composed of 12 animals. The mice were randomized according to body weight and basal glycemia values following a 5±0.5 hour fasting period.
For the four weeks of treatment, the test articles were dissolved in reverse osmosis water. 4-Hydroxyisoleucine was aliquoted and kept at 4° C. (administration to groups 2, 3, and 6), while Rosiglitazone was freshly prepared daily and kept at 4° C. between the AM and PM administration to groups 4, 5, and 6. Control animals received reverse osmosis water twice daily (group 1). Mice from groups 2 and 3 were treated twice daily with 4-OH at 50 and 100 mg/kg, respectively. Animals from groups 4 and 5 received 1.5 and 5 mg/kg of Rosiglitazone, respectively. […] All groups were treated by oral gavage. Treatment commenced on Day 0 and ended on Day 28 (FIGS. 17A and 17C).
Food consumption was measured and averaged on a weekly basis beginning one week before the start of treatment as shown in FIGS. 17B and 17D as week −1. Similarly, food consumption was monitored for one week after treatment was stopped and is shown as week 5 in FIGS. 17B and 17D. In FIG. 17B, the food consumption over time for various treatment groups is illustrated by the bar graph.

[3] = Body weight of DIO mice, 4-hydroxyisoleucine and metformin alone and in combination (Example 6); type: in vivo, C57BU6 mice
Protocol: C57BU6 mice were received at 7-8 weeks of age and fed a high fat diet (60% of calories from fat) for 8 weeks. Fasted glycemia was checked and animals with readings between 200 and 220 mg/dL were included in the study. The animals were randomized based on their body weights and glycemia values into control and treatment groups (n=8). […] The control group received vehicle (water) alone. The animals were treated for 21 days. Body weight of the mice was measured on the first day of treatment and on days 3, 7, 10, 14, 17, and 21. All data are expressed as mean±SEM.

[4] = Reversal of weight gain in obese wistar rats on HFHS diet (Example 11); type: in vivo; settings: 100 mg/kg twice daily oral
Excerpt: The aim of this study was to evaluate the effect of chronic administration of 4-hydroxyisoleucine (4-OH, Compound 14a) on food consumption, tissue weight, and body weight gain of wistar obese rats.
A total of 30 animals were used in the study. The animals were acclimated for 1 week and fed standard chow. The animals were randomized into 3 groups of 10 animals each. Two groups were fed a high fat, high sucrose diet (HFHS), and 1 untreated control group was fed standard chow over a 28 day period. Animals were housed separately and food consumption was monitored daily.
In the following period of 28 days, the feeding regimen remained the same for the 3 groups; however, 1 group fed HFHS was treated with twice daily oral administration of 4-OH at 100 mg/kg per dose. For the 28 days of treatment, 4-OH was dissolved in reverse osmosis water, aliquoted, and kept at 4° C. Untreated animals received water twice daily.

[5] = 4-OH 50 or 100 mg/kg twice daily
[6] = obese wistar rats (28 days HFHS before treatment)

SMILES: C[C@@H]([C@H](C)O)[C@H](N)C(=O)O [compound 14a, (2S,3R,4S)-4-Hydroxyisoleucine]
- weight gain during the course of treatment ([1]; 100 mg/kg twice daily oral): moderation of weight gain
- weight gain as compared to the control group ([1]; 100 mg/kg twice daily oral, Day 21 to Day 56): significantly reduced
- tolerability of treatment ([1]; 100 mg/kg twice daily, oral gavage, 56 days): well tolerated
- food consumption ([1]; first three weeks of treatment but not later on): slight decrease in food consumption
- weight gain induced by Rosiglitazone ([2]; 4-OH 50 mg/kg co-administered with Rosiglitazone 1.5 mg/kg): able to modulate the weight gain induced by Rosiglitazone
- food consumption (FIG. 17D) ([2]; 4-OH 50 mg/kg, Rosiglitazone 1.5 mg/kg, or the two co-administered): reduction in food consumption during the first week, but not after
- weight gain ([2]; 4-OH 100 mg/kg twice daily oral, 28 days): Moderation of weight gain
- food consumption, first week of treatment (FIG. 17B) [2, 5]: decreased
- food consumption, remainder of the treatment phase (FIG. 17B) [2, 5]: returned to pre-treatment levels
- body weight as compared to vehicle-treated mice ([3]; DIO mice, 100 mg/kg twice daily oral, 21 days, only 4-OH significant (p<0.01 4-OH, p=0.27 metformin)): reduction of their body weight
- body weight compared to control DIO mice, given alone ([3]; DIO mice, 4-OH 50 mg/kg or metformin 25 mg/kg twice daily oral, 21 days): no significant effect on body weight
- efficacy in reducing body weight relative to metformin ([3]; DIO mouse model, conclusion of the study): as effective as mefformin
- epididymal and peri-renal adipose tissue [4, 6]: reduction of epididymal and pen-renal adipose tissue
- muscle, brown fat, and organ weight [4, 6]: not affected
- tolerability of treatment [4, 6]: well tolerated
- weight gain [4, 6]: Moderation of weight gain
- food consumption ([4]; obese wistar rats, 28 days, could not account for the differences in adiposity): reduction in food consumption
